The subject of one experiment is Candida albicans. The experiment is described as follows: anti-Candida albicans activity, agar plate dilution method with paper disk, inhibition zone. It is filed as cell-based. As to conditions: Concentration 40 mg/disk; paper disk 8 mm; agar medium for neomycin assay. The source says:
The paper disk (8 mm, Advantic) and agar medium for neomycin assay (Difco) were used in the tests. As the novel macrocyclic lactones inhibit the growth of Candida albicans, they have an antifungal activity.

Experiment [1] relates to human mixed lymphocyte reaction (MLR). Briefly: human mixed lymphocyte reaction (MLR) activity. It is filed as cell-based. The following applies: read-out: MLR activity(IC50, mg/ml). The procedure: The measurement of the human MLR activity of the macrocyclic lactones of this invention carried out by standard procedures which are described in the literature (D. P. Dubey et al., in Manual of Clinical Laboratory Immunology, 3rd Ed., pp847-858, 1986). The cytotoxicities of the macrocyclic lactones were measured by the standard procedure (T. Mosmann, J., J. Immunol. Methods, 65, 55-63, 1983). The concentration of their cytotoxicities is several ten times higher than that of their MLR activities.

Values after ≈ are worked out from the molar mass of the structure shown.

Regarding `CO[C@H]1C[C@@H]2CC[C@@H](C)[C@@](O)(O2)C(=O)C(=O)N2CCCC[C@H]2C(=O)O[C@H]([C@H](C)C[C@@H]2CC[C@@H](O)[C@H](OC)C2)CC(=O)[C@H](C)/C=C(\C)[C@@H](O)[C@@H](OC)C(=O)[C@H](C)C[C@H](C)/C=C/C=C/C=C/1C` [Rapamycin, rapamycin], the “The diameter of inhibition zone (mm)” value in the experiment with Candida albicans came to 25 mm. Moreover, the IC50 in experiment [1] is 0.01 mg/L (≈ 0.0109 µM).

Source of the values: patent EP0627009B1, “MACROCYCLIC LACTONES AND A PRODUCTIVE STRAIN THEREOF” (PFIZER INC., priority 1992, dated 1993).
